Assay results taken from patent US20120189543A1, “Compositions and Methods for Detecting and Treating Implant Loosening and Osteolysis” (priority 2009, published 2012).

What was measured:
IL-1β mRNA = assay: PMMA particle-induced IL-1β mRNA in cultured human monocytes (real-time RT-PCR); settings: 4 hours pulse P-Dex 5 μM or free Dex 0.6 μM, PMMA 3 hours; n=3
Method: (§1) Cells were cultured for 24 hours at a cell density of 10^6 cells/mL in a-MEM medium (Invitrogen, Carlsbad, Calif.) supplemented with 10% fetal bovine serum (VWR, West Chester, Pa.) and 1% antibiotic/antimycotic (Invitrogen, Carlsbad, Calif.) in the presence of 10 ng/mL human M-CSF (Peprotech, Rocky Hill, N.J.) in 24-well tissue culture plates (1 mL/well). Cells were then pulsed for 4 hours with P-Dex (5 μM) or free Dex (dexamethasone phosphate sodium, 0.6 μM), washed and replenished with fresh medium. […] After 24 hours, cells were treated +/−PMMA particles (30 particles/cell) for 3 hours. Total cellular RNA was prepared (RNeasy, Qiagen) and analyzed by real-time RT-PCR as previously described for inflammatory cytokines (IL 1-α, IL-1- β).

[1] = tested on: pro-inflammatory cytokine response (e.g., TNF and IL-1); assay: Particle-induced pro-inflammatory cytokine response in human monocytes; settings: pretreatment of PMMA challenged monocytes
Method: as §1

IL-1α mRNA = assay: PMMA particle-induced IL-1α mRNA in cultured human monocytes (real-time RT-PCR); settings: 4 hours pulse P-Dex 5 μM or free Dex 0.6 μM, PMMA 3 hours; n=3; p<0.05
Method: as §1

[2] = tested on: PMMA particle implantation site (calvaria); design: species or system Swiss Webster mice; settings: mouse, in vivo
From the text: The group injected with PBS was used as a negative control and was given the same dose of P-IRDye. The mice were imaged prior to and daily after contrast agent injection using an XENOGEN IVIS® 200 Series Imaging System (Hopkinton, Mass.) to evaluate the distribution of the HPMA copolymer conjugate continuously for the 6 days.

Compound | IL-1β mRNA level of PMMA group compared with treated group (IL-1β mRNA) | effect of pretreatment on particle-induced pro-inflammatory cytokine response [1] | IL-1α mRNA level of PMMA group compared with treated group (IL-1α mRNA) | NIR signal at particle implantation site, % of the original signal intensity [2] [%] | persistence of the P-IRDye signal [2]
C[C@@H]1C[C@H]2[C@@H]3CCC4=CC(=O)C=C[C@]4(C)[C@@]3(F)[C@@H](O)C[C@]2(C)[C@@]1(O)C(=O)COP(=O)([O-])[O-].[Na+].[Na+] [Dex, dexamethasone phosphate sodium] | higher (but not significantly) | significant repression | significantly higher | – | –
IRDye 800CW-labeled HPMA Copolymer [P-IRDye] | – | – | – | 60 | over 7 days
